How the values were obtained:
[1] = target: P2X7 receptor (hP2X7) (Homo sapiens (Human), UniProt Q99572); assay: Screen Quest Fluo-8 No Wash Calcium Assay (Bz-ATP-induced Ca2+ influx, FLIPR TETRA); format: cell-based; conditions: HEK-293 cells stably transfected with P2X7 receptor, Fluo-8 calcium, Low Divalent Cation Assay Buffer
Method: Extracellular binding of Bz-ATP to P2X7 receptor opens the channel and allows Ca2+ influx into the cells. This Ca2+ entry was measured in HEK-293 cells stably transfected with P2X7 receptor using Screen Quest™ Fluo-8 No Wash Calcium Assay Kit (AAt Bioquest®, cat. 36316). Once inside the cell, the lipophilic blocking groups of Fluo-8 are cleaved by non-specific cell esterases, resulting in a negatively-charged fluorescent dye that stays inside cells. Its fluorescence increases upon binding to calcium. When HEK-293/P2X7 cells are stimulated with Bz-ATP, Ca2+ enters the cells and the fluorescence of Fluo-8 NW increases. The dye has an absorption spectrum compatible with excitation at 488 nm by argon laser sources and its emission wavelength is in the range of 515-575 nm.
HEK-293 cells stably transfected with P2X7 receptor were seeded overnight in growth medium at 10,000 to 20,000 cells/well in 384-well plate. 24 hours later, the medium was removed and the cells were pre-loaded at RT for 1 hour with 20 μL/w of Fluo-8 NW. Then 10 μL/w of test compounds and reference antagonist A438079 at 3×-concentration were injected with the […] and the kinetic response over a period of five minutes was monitored.

[2] = target: P2X7 receptor (Homo sapiens (Human), UniProt Q99572); assay: YO-PRO-1 Uptake Assay (large pore form, Bz-ATP stimulated); format: cell-based; conditions: HEK-293 cells stably transfected with P2X7 receptor; Bz-ATP EC80 (30 μM); 5 μM YO-PRO-1
Sequence of P2X7 receptor (Q99572 whole entry): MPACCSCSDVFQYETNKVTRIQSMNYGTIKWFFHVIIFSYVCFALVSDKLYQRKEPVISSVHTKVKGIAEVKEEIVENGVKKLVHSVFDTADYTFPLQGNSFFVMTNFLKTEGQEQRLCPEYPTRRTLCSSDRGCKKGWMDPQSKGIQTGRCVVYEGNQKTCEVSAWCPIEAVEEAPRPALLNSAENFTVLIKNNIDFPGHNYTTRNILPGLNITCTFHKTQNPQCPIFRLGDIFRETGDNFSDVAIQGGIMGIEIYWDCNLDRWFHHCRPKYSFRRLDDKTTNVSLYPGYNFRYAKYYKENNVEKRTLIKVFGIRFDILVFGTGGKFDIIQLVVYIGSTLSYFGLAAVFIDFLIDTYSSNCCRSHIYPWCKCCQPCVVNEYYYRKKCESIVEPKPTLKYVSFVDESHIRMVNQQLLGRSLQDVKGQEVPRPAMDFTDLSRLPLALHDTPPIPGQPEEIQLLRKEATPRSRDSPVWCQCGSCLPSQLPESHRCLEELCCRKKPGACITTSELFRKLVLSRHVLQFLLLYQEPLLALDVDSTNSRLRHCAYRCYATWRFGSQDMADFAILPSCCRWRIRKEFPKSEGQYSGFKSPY
Text: YO-PRO®-1 is a fluorescent DNA-binding dye with a MW of 374 Da (Molecular Probes®, cat. Y3603). This method is based upon the presumed ability of YO-PRO®-1 to enter through the dilated or “large pore form” of P2X7 receptor and to bind to intracellular DNA whereupon it increases many fold its fluorescence intensity. The dye has an absorption spectrum compatible with excitation at 488 nm by argon laser sources and its emission wavelength is in the range of 515-575 nm. The aim of this assay was to validate the interaction of antagonists with P2X7 receptor using an alternative readout to Ca^2+-sensitive fluorescent dyes.
HEK-293 cells stably transfected with P2X7 receptor were seeded overnight in growth medium at 20,000 cells/well in 384-well plate. 24 hours later, the medium was removed, the cells were washed with Low Divalent Cation Assay Buffer (0.3 mM Ca2+ and 0 mM Mg2+) and then pre-loaded with 20 μL/w of 5 μM YO-PRO®-1 dye. […] fluorescence measurement immediately started. Then, 10 μL/w of test compounds and reference antagonist A438079 at 3×-concentration were injected with the […] and the kinetic response over a period of five minutes was monitored. A second injection of 10 μL/w of 3× Bz-ATP EC80 (30 μM) was performed with the […] and the signal of the emitted fluorescence was recorded for additional 60 minutes. All the experiment was carried out with a Low Divalent Cation Assay Buffer (0.3 mM Ca^2+ and 0 mM Mg^2+).
The effect of the test compounds was measured as percent inhibition vs the reference antagonist and IC50 values were calculated accordingly.

Sequence of P2X7 receptor (hP2X7) (Q99572 whole entry): as above

Row | IC50 [1] [nM] | IC50 [2] [nM] | Compound
1 | 142 |  | Cc1ncsc1C(CNC(=O)c1cc(-c2ncc(F)cn2)ccc1F)N1CCOC(c2cnn(C)c2)C1 (stereo not shown) [Compound 98]
2 | 292 |  | Cc1ncc(C(CNC(=O)c2cc(-c3ncc(F)cn3)ccc2F)N2CCC(F)(F)CC2)s1 (stereo not shown) [Compound 80, N-[2-(4,4-difluoropiperidin-1-yl)-2-(2-methyl-1,3-thiazol-5-yl)ethyl]-2-fluoro-5-(5-fluoropyrimidin-2-yl)benzamide]
3 |  | 2070 | Cc1ncoc1C(CNC(=O)c1c(F)cccc1Cl)N1CCC(F)(F)CC1 (stereo not shown) [Compound 52, 2-chloro-N-[2-(4,4-difluoropiperidin-1-yl)-2-(4-methyl-1,3-oxazol-5-yl)ethyl]-6-fluorobenzamide]
4 | 336 |  | O=C(NCC(c1cnc(C2CCC(F)(F)CC2)s1)N1CCOCC1)c1cc(-c2ncc(F)cn2)ccc1Cl (stereo not shown) [Compound 125, 2-chloro-N-{2-[2-(4,4-difluorocyclohexyl)-1,3-thiazol-5-yl]-2-(morpholin-4-yl)ethyl}-5-(5-fluoropyrimidin-2-yl)benzamide]
5 | 279 |  | O=C(NCC(c1scnc1C1CC1)N1CCC(F)(F)CC1)c1c(F)cccc1Cl (stereo not shown) [Compound 123, 2-chloro-N-[2-(4-cyclopropyl-1,3-thiazol-5-yl)-2-(4,4-difluoropiperidin-1-yl)ethyl]-6-fluorobenzamide]
6 | 133 |  | Cc1ncc(C(CNC(=O)c2cc(-c3cnccn3)ccc2Cl)N2CCC(F)(F)CC2)s1 (stereo not shown) [Compound 78, 2-chloro-N-[2-(4,4-difluoropiperidin-1-yl)-2-(2-methyl-1,3-thiazol-5-yl)ethyl]-5-(pyrazin-2-yl)benzamide]
7 | 253 |  | Cc1ncsc1C(CNC(=O)c1c(F)cccc1Cl)N1CCCC(F)(F)C1 (stereo not shown) [Compound 64, 2-chloro-N-[2-(3,3-difluoropiperidin-1-yl)-2-(4-methyl-1,3-thiazol-5-yl)ethyl]-6-fluorobenzamide]
8 | 3950 |  | CC(C)(C)c1ncc(C(CNC(=O)c2cccc3ncccc23)N2CCC(F)(F)CC2)s1 (stereo not shown) [Compound 124, N-[2-(2-tert-butyl-1,3-thiazol-5-yl)-2-(4,4-difluoropiperidin-1-yl)ethyl]quinoline-5-carboxamide]
9 | 495 |  | O=C(NCC(c1cnc(C2CC2)s1)N1CCC(F)(F)CC1)c1cc(-c2ncc(F)cn2)ccc1F (stereo not shown) [Compound 86, N-[2-(2-cyclopropyl-1,3-thiazol-5-yl)-2-(4,4-difluoropiperidin-1-yl)ethyl]-2-fluoro-5-(5-fluoropyrimidin-2-yl)benzamide]
10 | 243 |  | CC(C)(C)c1ncc(C(CNC(=O)c2c(F)cccc2Cl)N2CCC(F)(F)CC2)s1 (stereo not shown) [Compound 118, N-[2-(2-tert-butyl-1,3-thiazol-5-yl)-2-(4,4-difluoropiperidin-1-yl)ethyl]-2-chloro-6-fluoro-benzamide]
11 | 238 |  | Cc1ncsc1C(CNC(=O)c1cc(-c2ncc(F)cn2)ccc1Cl)N1CCC(Oc2ccccc2)CC1 (stereo not shown) [Compound 73, 2-chloro-5-(5-fluoropyrimidin-2-yl)-N-[2-(4-methyl-1,3-thiazol-5-yl)-2-(4-phenoxypiperidin-1-yl)ethyl]benzamide]
12 | 989 |  | Cc1ncsc1C(CNC(=O)c1c(F)cccc1Cl)N1CCOC2(CCC2)C1 (stereo not shown) [Compound 96, 2-chloro-6-fluoro-N-[2-(4-methyl-1,3-thiazol-5-yl)-2-{5-oxa-8-azaspiro[3.5]nonan-8-yl}ethyl]benzamide]
13 | 429 |  | O=C(NCC(c1cnc(C2CCC(F)(F)CC2)s1)N1CCC(F)(F)CC1)c1c(F)cccc1Cl (stereo not shown) [Compound 117, 2-chloro-N-{2-[2-(4,4-difluorocyclohexyl)-1,3-thiazol-5-yl]-2-(4,4-difluoropiperidin-1-yl)ethyl}-6-fluorobenzamide]
14 | 1060 |  | CC(C)(C)c1ncc(C(CNC(=O)c2cc(-c3ncc(F)cn3)ccc2Cl)N2CCC(F)(F)CC2)s1 (stereo not shown) [Compound 122, N-[2-(2-tert-butyl-1,3-thiazol-5-yl)-2-(4,4-difluoropiperidin-1-yl)ethyl]-2-chloro-5-(5-fluoropyrimidin-2-yl)benzamide]
15 | 1870 |  | Cc1ncsc1C(CNC(=O)c1c(F)cccc1Cl)N1CCC(F)(F)CC1C (stereo not shown) [Compound 104, 2-chloro-N-[2-(4,4-difluoro-2-methylpiperidin-1-yl)-2-(4-methyl-1,3-thiazol-5-yl)ethyl]-6-fluorobenzamide]
16 | 206 |  | Cc1cccc(-c2ccc(Cl)c(C(=O)NCC(c3cnc(C)s3)N3CCC(F)(F)CC3)c2)n1 (stereo not shown) [Compound 79, 2-chloro-N-[2-(4,4-difluoropiperidin-1-yl)-2-(2-methyl-1,3-thiazol-5-yl)ethyl]-5-(6-methylpyridin-2-yl)benzamide]

Row | IC50 [1] [nM] | IC50 [2] [nM] | Compound
17 | 321 |  | Cc1ncsc1C(CNC(=O)c1cc(-c2ncc(F)cn2)ccc1F)N1CCOC2(CCC2)C1 (stereo not shown) [Compound 94, 2-fluoro-5-(5-fluoropyrimidin-2-yl)-N-[2-(4-methyl-1,3-thiazol-5-yl)-2-{5-oxa-8-azaspiro[3.5]nonan-8-yl}ethyl]benzamide]
18 | 737 |  | O=C(NCC(c1cnc(C(F)(F)F)s1)N1CCC(F)(F)CC1)c1cc(-c2ncc(F)cn2)ccc1Cl (stereo not shown) [Compound 82]
19 | 355 |  | COc1ccc(-c2ncc(F)cn2)cc1C(=O)NCC(c1scnc1C)N1CCC(F)(F)CC1 (stereo not shown) [Compound 71, N-[2-(4,4-difluoropiperidin-1-yl)-2-(4-methyl-1,3-thiazol-5-yl)ethyl]-5-(5-fluoropyrimidin-2-yl)-2-methoxybenzamide]
20 |  | 4900 | COc1cccc(C(=O)NCC(c2ocnc2C)N2CCOCC2)c1OC (stereo not shown) [Compound 53, 2,3-dimethoxy-N-[2-(4-methyl-1,3-oxazol-5-yl)-2-(morpholin-4-yl)ethyl]benzamide]
21 | 186 |  | Cc1ncsc1C(CNC(=O)c1cc(-c2ncc(F)cn2)ccc1Cl)N1CCC(F)(F)CC1C (stereo not shown) [Compound 103, 2-chloro-N-[2-(4,4-difluoro-2-methylpiperidin-1-yl)-2-(4-methyl-1,3-thiazol-5-yl)ethyl]-5-(5-fluoropyrimidin-2-yl)benzamide]
22 | 6910 |  | Cc1ncsc1C(CNC(=O)c1cc2c(cc1F)NC(=O)CC2)N1CCC(F)(F)CC1 (stereo not shown) [Compound 120, N-[2-(4,4-difluoropiperidin-1-yl)-2-(4-methyl-1,3-thiazol-5-yl)ethyl]-7-fluoro-2-oxo-1,2,3,4-tetrahydroquinoline-6-]
23 | 139 |  | Cc1ncsc1C(CNC(=O)c1cc(-c2ncc(F)cn2)ccc1Cl)N1CCOC(c2cnn(C)c2)C1 (stereo not shown) [Compound 97]
24 | 171 |  | Cc1ncsc1C(CNC(=O)c1c(F)cccc1Cl)N1CCOC(c2cnn(C)c2)C1 (stereo not shown) [Compound 92, 2-chloro-6-fluoro-N-[2-(4-methyl-1,3-thiazol-5-yl)-2-[2-(1-methyl-1H-pyrazol-4-yl)morpholin-4-yl]ethyl]benzamide]
25 | 412 |  | Cc1ncsc1C(CNC(=O)c1c(F)cccc1Cl)N1CCOC(c2ccccc2C(F)(F)F)C1 (stereo not shown) [Compound 90, 2-chloro-6-fluoro-N-[2-(4-methyl-1,3-thiazol-5-yl)-2-{2-[2-(trifluoromethyl)phenyl]morpholin-4-yl}ethyl]benzamide]
26 | 39 |  | Cc1ncsc1C(CNC(=O)c1cc(-c2ncc(F)cn2)ccc1Cl)N1CC(F)(F)C1 (stereo not shown) [Compound 65, 2-chloro-N-[2-(3,3-difluoroazetidin-1-yl)-2-(4-methyl-1,3-thiazol-5-yl)ethyl]-5-(5-fluoropyrimidin-2-yl)benzamide]
27 | 319 |  | O=C(NCC(c1scnc1C1CC1)N1CCC(F)(F)CC1)c1cc(-c2ncc(F)cn2)ccc1Cl (stereo not shown) [Compound 119]
28 | 367 |  | Cc1ncsc1C(CNC(=O)c1ccc(N2CCCS2(=O)=O)cc1Cl)N1CCC(F)(F)CC1 (stereo not shown) [Compound 114]
29 | 743 |  | Cc1ncc(C(CNC(=O)c2cc(-c3ncc(F)cn3)ccc2Cl)N2CCC(F)(F)CC2C)s1 (stereo not shown) [Compound 113, 2-chloro-N-[2-(4,4-difluoro-2-methylpiperidin-1-yl)-2-(2-methyl-1,3-thiazol-5-yl)ethyl]-5-(5-fluoropyrimidin-2-yl)]
30 | 1430 |  | O=C(NCC(c1cnc(C2CCC(F)(F)CC2)s1)N1CCC(F)(F)CC1)c1cc(-c2ncc(F)cn2)ccc1Cl (stereo not shown) [Compound 126]
31 | 531 |  | O=C(NCC(c1scnc1C1CC1)N1CCC(F)(F)CC1)c1cccc2ncccc12 (stereo not shown) [Compound 121, N-[2-(4-cyclopropyl-1,3-thiazol-5-yl)-2-(4,4-difluoropiperidin-1-yl)ethyl]quinoline-5-carboxamide]

Source: patent US9718812B2, “Substituted thiazole or oxazole P2X7 receptor antagonists” (Axxam S.P.A., priority 2014, dated 2017)
